Reference: patent EP3461488A1, “COMBINATION OF A DBAIT MOLECULE AND A HDAC INHIBITOR FOR TREATING CANCER” (ONXEO, priority 2017, dated 2019)
Like-named read-outs stand apart in the source and are kept apart here.

Key:
[1] = tested on: non-tumor mammary cell line MCF-10A; experiment: XTT cell survival assay, non-tumor cells MCF-10A; conditions: same drug doses as MDA-MB-231, 7 days after treatment, result in words
Protocol: (§1) Cell cultures were performed with the triple negative breast cancer cell line MDA-MB-231, the histiocytic lymphoma cell line U937 and the non-tumor mammary cell line MCF-10A. Cells were grown according to the supplier's instructions. Cell lines were maintained at 37°C in a humidified atmosphere at 5% CO2, except the MDA-MB-231 cell line which was maintained at 0% CO2.
(§2) In a first step, the characterization of the effect of drugs monotherapy on cell survival (tumour and non-tumour cells) was performed. MDA-MB-231 (5.10^3 cells/well), MCF-10A (5.10^3 cells/well) and U937 (2.10^4 cells/well) were seeded in 96 well-plates and incubated 24 hours at +37°C before drug addition with increasing concentrations for 4 to 7 days. Following drug exposure, cell survival was measured using the XTT assay (Sigma Aldrich). Briefly, the XTT solution was added directly to each well containing cell culture and the cells incubated for 4 to 24 hours at 37°C before reading the absorbance at 490 nm and 690 nm using a microplate reader (BMG Fluostar, Galaxy). Cell survival was calculated as the ratio of living treated cells to living mock-treated cells. The IC50 (which represents the dose at which 50% of the cells are viable) was calculated by a non-linear regression model using GraphPad Prism software (version 5.04) by plotting the percentage viability against the Log of the drug concentration on each cell line.
(§3) In a second step, analysis and quantification of the drug combination efficacy were performed. Cells were seeded in 96-well plates at the appropriate densities and treated with AsiDNA and/or the HDAC inhibitor (HDACi) belinostat simultaneously during 4 to 7days.
In a first step, the characterization of the effect of drugs monotherapy on cell survival (tumour and non-tumour cells) was performed. MDA-MB-231 (5.10^3 cells/well), MCF-10A (5.10^3 cells/well) and U937 (2.10^4 cells/well) were seeded in 96 well-plates and incubated 24 hours at +37°C before drug addition with increasing concentrations for 4 to 7 days. Following drug exposure, cell survival was measured using the XTT assay (Sigma Aldrich). Briefly, the XTT solution was added directly to each well containing cell culture and the cells incubated for 4 to 24 hours at 37°C before reading the absorbance at 490 nm and 690 nm using a microplate reader (BMG Fluostar, Galaxy). Cell survival was calculated as the ratio of living treated cells to living mock-treated cells. […] In a second step, analysis and quantification of the drug combination efficacy were performed. […] Cell survival was measured using the XTT assay (see above). Combination efficacy was evaluated by "the combination index (CI)" which was determined using the CalcuSyn software tool based on the Chou Talalay method. […]

[2] = tested on: histiocytic lymphoma cell line U937; experiment: XTT cell survival assay and combination index analysis, U937; format: cell-based; conditions: Homo sapiens, U-937
Protocol: as §1, §2

[3] = tested on: triple negative breast cancer cell line MDA-MB-231; experiment: XTT cell survival assay and combination index analysis, MDA-MB-231; format: cell-based; conditions: Homo sapiens
Protocol: Cells were grown according to the supplier's instructions.
In a first step, the characterization of the effect of drugs monotherapy on cell survival (tumour and non-tumour cells) was performed. […] Following drug exposure, cell survival was measured using the XTT assay (Sigma Aldrich). […] Cell survival was calculated as the ratio of living treated cells to living mock-treated cells.
as §3
Combination efficacy was evaluated by "the combination index (CI)" which was determined using the CalcuSyn software tool based on the Chou Talalay method). […] Note that we define synergism as a more than expected additive effect, and antagonism as a less than expected additive effect.
In a first step, the characterization of the effect of drugs monotherapy on cell survival (tumour and non-tumour cells) was performed. […] Following drug exposure, cell survival was measured using the XTT assay (Sigma Aldrich). […] Cell survival was calculated as the ratio of living treated cells to living mock-treated cells. […] In a second step, analysis and quantification of the drug combination efficacy were performed. […] Cell survival was measured using the XTT assay (see above). Combination efficacy was evaluated by "the combination index (CI)" which was determined using the CalcuSyn software tool based on the Chou Talalay method. […]
In a first step, characterization of the effect of drugs monotherapy on cell survival (tumour and non-tumour cells) was performed. […] Following drug exposure, cell survival was measured using the XTT assay (Sigma Aldrich). […] Cell survival was calculated as the ratio of living treated cells to living mock-treated cells. […] In a second step, analysis and quantification of the drug combination efficacy were performed. […] Cell survival was measured using the XTT assay (see above). […]

[4] = U937, XTT assay, monotherapy, increasing concentrations for 4 to 7 days, dose at which 50% of the cells are viable, read-out: IC50
[5] = XTT assay, monotherapy, increasing concentrations for 4 to 7 days, dose at which 50% of the cells are viable, read-out: IC50

Row | SMILES | cell survival of non-tumor cells (sensitivity) [1] | IC50 [2, 4] [nM] | IC50 [3, 5] [nM] | IC50 [2] [nM] | IC50 [3] [nM]
1 | O=C(/C=C/c1cccc(S(=O)(=O)Nc2ccccc2)c1)NO [Belinostat, (2E)-N-hydroxy-3-[3-(phenylsulfamoyl)phenyl]prop-2-enamide] | insensitive | 250 | 250 | – | –
2 | Nc1ccccc1NC(=O)c1ccc(CNC(=O)OCc2cccnc2)cc1 [Entinostat] | insensitive | 10 | 100 | – | –
3 | O=C(CCCCCCC(=O)Nc1ccccc1)NO [Vorinostat, N-hydroxy-N'-phenyloctanediamide] | showed a sensitivity | – | – | – | –
4 | C/C=C1\NC(=O)[C@H]2CSSCC/C=C/[C@H](CC(=O)N[C@H](C(C)C)C(=O)N2)OC(=O)[C@H](C(C)C)NC1=O [Romidepsin] | showed a sensitivity | – | – | 1 | 0.4
